± gives the expanded uncertainty stated by the source.
Key:
[1] = refractive index (Na D-line) (dimensionless); settings: 293.15 K; 101.33 kPa; Liquid; Standard Abbe refractometry
[2] = Liquid; Ebulliometric method (Recirculating still)

Row | Compound | refractive index [1] | Normal boiling temperature [2]
1 | CC(O)C(C)O (centres undefined) [2,3-butanediol] | 1.4375 ± 0.0007 | 181.06 ± 0.2 °C
2 | CCCCOC(C)=O [butyl ethanoate] | 1.3941 ± 0.0007 | 125.96 ± 0.2 °C

From the NIST ThermoML archive (doi:10.1021/je700705d)
